Literature values in US20210346403A1, “USE OF COMPOUNDS THAT TARGET MINERALOCORTICOID RECEPTORS FOR TREATING COVID-19” (priority 2020, published 2021).

Key:
progestin receptor = target: T1, progestin receptor (Homo sapiens, UniProt P06401); settings: fold lower affinity; comparator not stated explicitly (spironolactone or MR implied)
T1 sequence (P06401 1-933): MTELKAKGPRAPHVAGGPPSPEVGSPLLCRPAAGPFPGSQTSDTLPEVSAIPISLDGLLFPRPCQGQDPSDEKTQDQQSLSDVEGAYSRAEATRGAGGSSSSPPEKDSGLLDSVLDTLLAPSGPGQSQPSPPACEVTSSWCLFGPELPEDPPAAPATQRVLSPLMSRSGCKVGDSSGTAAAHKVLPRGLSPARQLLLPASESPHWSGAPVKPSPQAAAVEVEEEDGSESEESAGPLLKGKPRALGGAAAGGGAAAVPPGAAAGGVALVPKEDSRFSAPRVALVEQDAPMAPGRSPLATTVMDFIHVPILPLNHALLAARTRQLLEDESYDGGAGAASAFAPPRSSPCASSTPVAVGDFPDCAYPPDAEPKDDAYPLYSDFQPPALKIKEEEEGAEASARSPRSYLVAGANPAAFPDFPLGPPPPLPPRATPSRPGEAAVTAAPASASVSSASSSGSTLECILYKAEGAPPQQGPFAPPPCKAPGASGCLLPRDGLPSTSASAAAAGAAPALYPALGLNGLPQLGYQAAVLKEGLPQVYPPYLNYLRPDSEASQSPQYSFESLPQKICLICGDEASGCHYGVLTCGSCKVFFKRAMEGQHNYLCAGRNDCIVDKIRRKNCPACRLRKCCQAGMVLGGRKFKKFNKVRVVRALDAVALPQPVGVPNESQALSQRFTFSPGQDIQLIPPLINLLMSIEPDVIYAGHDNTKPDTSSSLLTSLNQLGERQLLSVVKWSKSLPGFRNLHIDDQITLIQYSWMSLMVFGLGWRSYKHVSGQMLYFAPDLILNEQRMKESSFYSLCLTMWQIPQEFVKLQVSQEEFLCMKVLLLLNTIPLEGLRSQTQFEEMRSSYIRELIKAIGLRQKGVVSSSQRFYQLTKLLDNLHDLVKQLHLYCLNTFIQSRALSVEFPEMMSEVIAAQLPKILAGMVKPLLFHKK

[1] = target: T2, mineralocorticoid receptor (MR) (Homo sapiens, UniProt P08235); settings: versus other steroid receptors, in words
T2 sequence (P08235 1-984): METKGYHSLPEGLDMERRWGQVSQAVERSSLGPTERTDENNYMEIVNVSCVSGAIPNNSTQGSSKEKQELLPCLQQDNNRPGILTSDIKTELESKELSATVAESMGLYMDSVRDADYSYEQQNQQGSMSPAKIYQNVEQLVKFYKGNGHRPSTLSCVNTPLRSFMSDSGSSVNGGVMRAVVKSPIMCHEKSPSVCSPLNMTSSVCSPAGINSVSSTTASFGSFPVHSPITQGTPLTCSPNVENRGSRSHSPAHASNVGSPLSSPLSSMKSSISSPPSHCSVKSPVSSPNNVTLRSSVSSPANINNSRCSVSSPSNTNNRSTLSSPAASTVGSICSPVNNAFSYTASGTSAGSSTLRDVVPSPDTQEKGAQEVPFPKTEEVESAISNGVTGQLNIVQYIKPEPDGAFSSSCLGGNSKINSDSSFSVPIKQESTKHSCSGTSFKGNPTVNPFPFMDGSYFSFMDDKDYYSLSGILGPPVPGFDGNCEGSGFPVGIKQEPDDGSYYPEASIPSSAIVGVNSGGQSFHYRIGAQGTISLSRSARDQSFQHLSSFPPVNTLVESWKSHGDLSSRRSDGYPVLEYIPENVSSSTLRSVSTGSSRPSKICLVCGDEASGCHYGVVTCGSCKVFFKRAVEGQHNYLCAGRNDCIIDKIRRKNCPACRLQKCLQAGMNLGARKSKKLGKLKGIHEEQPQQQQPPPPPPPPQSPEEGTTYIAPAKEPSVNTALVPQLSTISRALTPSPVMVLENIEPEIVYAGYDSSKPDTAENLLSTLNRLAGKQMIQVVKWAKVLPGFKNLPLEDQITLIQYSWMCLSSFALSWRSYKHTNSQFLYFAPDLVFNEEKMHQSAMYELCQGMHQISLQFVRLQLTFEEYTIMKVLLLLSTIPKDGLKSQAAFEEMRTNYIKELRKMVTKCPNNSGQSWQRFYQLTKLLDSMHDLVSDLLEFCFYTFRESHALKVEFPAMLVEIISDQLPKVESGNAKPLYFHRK

[2] = degraded by aminopeptidase A enzymes on red blood cells

**Q.** For COC(=O)[C@@H]1CC2=CC(=O)CC[C@]2(C)[C@@]23O[C@@H]2C[C@@]2(C)[C@@H](CC[C@@]24CCC(=O)O4)[C@H]13 [Eplerenone, eplerenone], which “lower affinity for the progestin receptor” value (progestin receptor) is on record?
**A.** The value was 500 fold.

**Q.** For CC(=O)S[C@@H]1CC2=CC(=O)CC[C@]2(C)[C@H]2CC[C@@]3(C)[C@@H](CC[C@@]34CCC(=O)O4)[C@H]12 [Spironolactone, spironolactone], which “selectivity for the MR” value [1] is on record?
**A.** The value was “less selective for the MR”.

**Q.** With “angiotensin-2 (DRVYIHPF; Angiotensin-2; UniProt P01019 25-32, looked up) [AngII]” as the compound, how does the half-life [2] read?
**A.** The half-life was 30 s.
